The values below come from patent US20200032313A1 (SANYO CHEMICAL INDUSTRIES, LTD., priority 2017, published 2020).

Where two headings read alike, the source gives them in different places.

Data set [1] concerns acid phosphatase-expressing Candida boidinii. Type of data set: cell-based. Conditions: 8 hours. On the procedure:
Candida boidinii was transformed and acid phosphatase-expressing microorganisms were produced based on a method described in a known document (Regulation and evaluation of five methanol-inducible promoters in the methylotrophic yeast Candida boidinii, H. Yurimoto et al., Biochimica et Biophysica Acta, 1493, 2000, pp. 56-63). The acid phosphatase-expressing microorganisms were inoculated using a platinum loop into BMGY broth, and were shake-cultured at 200 rpm at 30° C. for 15 hours. Then, the thus-obtained broth was resuspended in 125-ml BMGY broth to a final OD of 0.1 OD/ml. Further, the resuspended broth was continued to be shake-cultured at 1100 rpm at 30° C. for about 17 hours until OD was 2 to 5. When OD was 2 to 5, methanol was added to a concentration of 2 v/v %, followed by culturing at 1100 rpm at 30° C. for 2 hours.
Two hours later, the surfactant described in Table 3 was added to the broth in the weight described in Table 3, and the broth was cultured at 1100 rpm at 30° C. for 8 hours. Eight hours later, the broth was sampled for measuring the optical density (optical density at the end of culturing), and was subjected to centrifugation using a centrifuge to separate bacteria and the supernatant from the broth. Then, the supernatant and the bacteria were collected.
Then, 50 mM acetic acid NaBf (pH 4.0) was added to the bacteria, followed by centrifugation, whereby the bacteria were washed. The washed bacteria were resuspended in 50 mM acetic acid NaBf (pH 4.0), whereby a sample for measuring the acid phosphatase activity on the bacterial surface was obtained.
The supernatant obtained in each of Examples 23 to 33 and Comparative Example 3 was mixed with a 2 M sodium acetate buffer (pH 4.0) in an amount of 5 μl that is 1/40 of the amount of the supernatant. The buffer-containing supernatant or the sample for measuring the bacterial surface obtained in each of Examples 23 to 33 was mixed with a substrate solution (50 mM sodium acetate buffer containing 0.64 mg/ml of p-nitrophenylphosphate; pH 4.0) at a capacity ratio of 1:1, and the mixture was reacted at 35° C. for 10 minutes.
After the reaction, a 10% solution of trichloroacetic acid in an amount equal to the amount of the reaction solution was added to the reaction solution to terminate the reaction. To develop a color, a saturated sodium carbonate solution in an amount equal to the total amount of the reaction solution was added to the solution in which the reaction has been terminated. The color-developed solution was centrifuged at 1500×g for 5 minutes to remove the insoluble fraction, and the absorbance at 420 nm was measured using a microplate reader “PowerWave” (Biotek). The reference wavelength was set to 630 nm.
The acid phosphatase activity of each of the supernatant and the sample for measuring the bacterial surface was calculated from the following formula. The thus-obtained acid phosphatase activity of the supernatant was regarded as the “acid phosphatase activity of secreted and produced useful substance” and the acid phosphatase activity of the sample for measuring the bacterial surface was regarded as the “acid phosphatase activity of useful substance remaining on bacterial surface”.
Acid phosphatase activity=((Abs 420 nm)−(Abs 630 nm))/(optical density at the end of culturing)
For each of Examples 23 to 33 and Comparative Example 3, the obtained value of the “acid phosphatase activity of secreted and produced useful substance” and the obtained value of the “acid phosphatase activity of useful substance remaining on bacterial surface” were used to calculate the secretion efficiency from the following mathematical formula.
Secretion efficiency (%)=100×(Acid phosphatase activity of secreted and produced useful substance)/(total acid phosphatase activity) […]

The subject of data set [2] is luciferase-expressing Saccharomyces cerevisiae. Type of data set: cell-based. Conditions: S. cerevisiae, 8 hours culturing after addition. On the procedure:
Transformation was performed using Saccharomyces cerevisiae distributed by Biotechnology Center, National Institute of Technology and Evaluation, whereby luciferase-expressing microorganisms were produced. A vector pYES2 (Thermo Fisher Scientific) was digested with HindIII and XbaI, and a synthetic (synthesized by Thermo Fisher Scientific on commission) a factor-luciferase gene having a HindIII cut site at one end and an XbaI cut site at the other end was inserted into the vector. The microorganisms were transformed by the a factor-luciferase gene-inserted pYES2 according to the method described in an instruction manual of pYES2. The luciferase-expressing microorganisms were inoculated using a platinum loop into YPD broth (yeast extract 1 wt % (Difco), bacto peptone 2 wt % (Difco), and glucose 2 wt %) and were shake-cultured at 200 rpm at 30° C. for 15 hours. Then, the thus-obtained broth was resuspended in 125-ml YPD broth (containing 100 mM potassium hydrogen phosphate buffer; pH: 6) to a final optical density (hereinafter sometimes abbreviated as “OD”) of 0.1 OD/ml.
The optical density of the broth was measured under the same conditions as for “Method of measuring the optical density of broth” described later.
Further, the resuspended broth was continued to be shake-cultured at 1100 rpm at 30° C. for about 17 hours until OD was 20 to 30. When OD was 20 to 30, the broth was centrifuged (1500 g, 10 min), and resuspended in 125-ml galactose-inducing broth (the YPD broth containing 100 mM potassium phosphate buffer and also containing 2% galactose instead of glucose; pH: 6), followed by culturing at 1100 rpm at 30° C. for 2 hours.
Subsequently, the surfactant described in Table 1 was added to the broth in the amount (wt %) described in Table 1, and the broth was cultured at 1100 rpm at 30° C. for 8 hours. Subsequently, the broth was sampled for measuring the optical density (optical density at the end of culturing) and for measuring the secretion efficiency. Then, these samples were subjected to centrifugation using a centrifuge to separate bacteria and the supernatant from the broth. Then, the supernatant and the bacteria were collected.
The optical density of the broth containing the microorganisms collected by sampling was measured in a quartz cell (light path of 1 cm) using a spectrophotometer (UV-1700, Shimadzu Corporation).
The broth was centrifuged at 1500 rpm at 4° C. for 5 minutes, and the supernatant was discarded. The precipitate was resuspended in a saline solution in an amount equal to the amount of the sample solution, and was diluted in the saline solution to obtain an appropriate absorbance (0.1 to 0.8). Then, the absorbance at 600 nm was measured. The optical density of the broth was calculated using the following mathematical formula (1).
Broth optical density(OD)=(Absorbance of diluted broth at 600 nm)×dilution factor of broth (Mathematical formula 1)

The nature of data set [3]: physchem. To be noted: pKa of the ionizable group in water at 25° C., two values where two ionizable groups.
Experimental: (§1) The pKa of the ionizable group in water is a value determined at 25° C.
Data set [4] in a line: pKa of the ionizable group of the surfactant in water. Conditions: two values where two ionizable groups.
Experimental: as §1
Setting [5] is: surfactant 0.03 wt % of broth, Examples 24, 27-33.
[6] abbreviates: surfactant 0.03 wt % of broth, Examples 2, 5-11.

For the compound `CCCCCCCCCCCCNCCC(=O)O`, the “Secretion efficiency (%)” value in data set [1] (surfactant 0.003 wt % of broth, Example 23) was determined as 49%; in data set [1] (setting [5]) it was 63%; in data set [1] (surfactant 0.3 wt % of broth, Example 25), 77%; in data set [1] (surfactant 3 wt % of broth, Example 26) it was 79%. Also, the “Optical density (OD) of broth at the end of culturing” value (shortened to “Optical density (OD) of broth”) in data set [2] (surfactant 0.003 wt % of broth, Example 1) is listed as 23.5 OD; in data set [2] (setting [6]), 21.2 OD; in data set [2] (surfactant 0.3 wt % of broth, Example 3), 18.2 OD; in data set [2] (surfactant 3 wt % of broth, Example 4), 10.9 OD.
For `CCCCCCCCCCCC[N+](C)(C)C.[Cl-]` [Surfactant (A2-1), lauryl trimethyl ammonium chloride], in data set [1] (setting [5]), the “Secretion efficiency (%)” value was 61%. Further, in data set [3], the pKa (in general, the negative logarithm of the acid dissociation constant) was determined as 14. The “Optical density (OD) of broth” value in data set [2] (setting [6]) is reported as 13.8 OD.
As for `CCCCCCCCCCCC[N+](C)(C)CCCS(=O)(=O)O.[OH-]` [Surfactant (A3-3), dodecyldimethyl(3-sulfopropyl)ammonium hydroxide], the “Secretion efficiency (%)” value in data set [1] (setting [5]) was 54%. In addition, the “Optical density (OD) of broth” value in data set [2] (setting [6]) was determined as 21.8 OD.
With `CCCCCCCCCCCCCCCCOP(=O)([O-])OCC[N+](C)(C)C` [Surfactant (A3-4), miltefosine, reference compound], the “Secretion efficiency (%)” value in data set [1] (setting [5]) stood at 54%. Further, the “Optical density (OD) of broth” value in data set [2] (setting [6]) came to 21.1 OD.
For the compound `CCCCCCCCCCCC[N+](C)(C)CC(=O)[O-]` [Surfactant (A3-5), betaine lauryldimethylaminoacetate], the “Secretion efficiency (%)” value in data set [1] (setting [5]) is 61%. Moreover, the “Optical density (OD) of broth” value in data set [2] (setting [6]) is recorded as 20.4 OD.
For “sodium (2-dodecylamino)ethanesulfonate [Surfactant (A3-1)]”, in that order: 57% and 22.0 OD.
In the case of “sodium polyoxyethylene (average 2.5 mol adduct) lauryl ether sulfate [Surfactant (A1-1)]”, in data set [4], the “pKa of the ionizable group in water at 25° C.” value is 2.0. The “Secretion efficiency (%)” value in data set [1] (setting [5]) amounted to 49%. The “Optical density (OD) of broth” value in data set [2] (setting [6]) is 21.9 OD.
Consider “sodium polyoxyethylene (average 3 mol adduct) lauryl ether acetate [Surfactant (A1-2)]”, for which, in data set [4], the “pKa of the ionizable group in water at 25° C.” value is recorded as 3.6. Further, in data set [1] (setting [5]), the “Secretion efficiency (%)” value turned out to be 48%. The “Optical density (OD) of broth” value in data set [2] (setting [6]) worked out at 22.1 OD.
